Laboratory results published in article PMC12498190, “A Photocaged N‐Phosphonopiperidinone as a Selective Photo‐Cleavable DPP8/9 Inhibitor” (Chembiochem, 2025).
Read-outs that look alike come from different tables or passages of the source.

Assays:
human DPP8 = target: T1, human DPP8 (Homo sapiens, UniProt Q6V1X1); test: DPP8 enzyme inhibition assay, AMC release from GP-AMC; type: biochemical; conditions: for IC50: 45 min pre-incubation, read-out: Apparent IC50
T1 construct: purchased Proteros Biostructures GmbH, Germany
Excerpt: (§1) We then continued to investigate the biochemical properties of the photocaged compound 5 versus the photoreleased product resembling inhibitor 1. To this end, we performed biochemical enzyme inhibition assays with DPP8 and DPP9 before and after irradiation of 5. Resulting DPP8/9 inhibition was quantified by following the DPP8‐ or DPP9‐mediated proteolysis of the fluorophore 7‐amino‐4‐methylcoumarin (AMC) from the model substrate Gly‐Pro‐AMC (Figure 1C,D and Table 1 ). To induce photocleavage of 5, reaction mixtures were irradiated for 5 min with the same green LED lamp as before, followed by a pre‐incubation of 45 min with the photoreleased inhibitor prior to substrate addition.
(§2) Enzyme activity of human DPP4, DPP8, and DPP9 (Proteros Biostructures GmbH, Germany) was determined by measuring the initial velocity of AMC release from the fluorogenic substrate GP‐AMC (Sigma Aldrich, USA) using a Tecan Spark 10 M multimode microplate reader (Tecan Group Ltd., Switzerland) in activity buffer (20 mM HEPES/KOH pH 7.3, 110 mM potassium acetate, 2 mM magnesium acetate, 0.5 mM EGTA, 0.02% Tween 20, supplemented with 1 mM DTT) and a final volume of 20 μL for maximal 30 min at 30 °C. Prior to the activity measurement, 10 nM of the corresponding enzyme was incubated for 45 min at 30 °C and gentle shaking with the indicated compounds at concentrations ranging from 0 to 100 μM, followed by irradiation with a green LED lamp (λ = 520−530 nm; Eurolite, Germany) for 5 min. The corresponding compounds were dissolved in DMSO and diluted in activity buffer (final DMSO concentration: 1%). To the inhibitor–enzyme mixture, GP‐AMC was then added to a final concentration of 250 μM, and the activity measurement was started. The resulting enzyme activity was calculated from the slope (fluorescence release over time) and plotted against the concentrations of the inhibitor. Apparent IC50 values were calculated using Graph‐Pad Prism v10.4.1 using the equation: [Inhibitor] versus response‐Variable slope (four parameters). All measurements were performed in triplicate, and error bars represent standard errors of the fit.

HEK293 cells = test: Cell viability assay (MTT); type: cell-based, human; conditions: 24 h; for Viability of cells (in words): after 5 min green light irradiation
Description: Figure 2 Competitive ABPP with photo‐cleavable inhibitor 5 in HEK293 cells. A) Schematic overview of a competitive ABPP experiment. A proteome is pre‐incubated with a competitor, followed by a labeling reaction with an activity‐based probe (ABP). In the case of a photocaged inhibitor, the active compound can be released via irradiation. Target proteins of the competitor cannot be bound by the ABP, resulting in an absence of the respective protein band in‐gel analysis. Created in BioRender. Najdzion, M. (2025) https://BioRender.com/84zn8cb B) Gel‐based competitive ABPP experiment in HEK293 cell lysates with the broadband serine hydrolase ABP ≡FP or the DPP8/9‐directed ABP 2 and the photocaged inhibitor 5, at the indicated concentrations, after or without prior irradiation with green light for 5 min. The corresponding pre‐incubation time for 5 was 30 min. C) Corresponding in situ competitive ABPP experiment in HEK293 cell culture, again with 10 µM 2 for 1 h. Labeling was competed by pre‐incubation with 20 µM 5 for 1 h, followed by an activation of the photocaged inhibitor by irradiation for 5 min with a green LED lamp, if applicable. D) Green light treatment has no cytotoxic effect. HEK293 cells were irradiated with a green LED lamp in the presence of 0.5% DMSO for 5 min (‘light’), and cell viability was measured after 24 h. […] Data was normalized to the non‐irradiated control (‘dark’). E) Green light treatment leads to the release of the active DPP8/9 inhibitor. HEK293 cells were incubated with compound 1 or 5 for 24 h. For both compounds, cell viability was measured under ‘dark’ (not irradiated) and ‘light’ (irradiated for 5 min with a green LED lamp after the addition of the inhibitor) conditions. […] Data was normalized to the non‐irradiated DMSO control.
In order to validate target engagement in living cells and potential cytotoxic effects of green light treatment, we determined cell viability of HEK293 cells after 24 h inhibitor treatment with 5 with or without 5 min green light irradiation, as the application of DPP8/9 inhibitors at high concentrations and thus elimination of any residual DPP8/9 activity results in cytotoxicity.^[ [38], [39] ^– [40] ^] As a control, effects of green light treatment on cell viability were examined in the absence of any inhibitor after 24 h, again with or without 5 min irradiation (Figure 2D). […] Of note, no additional effect of the photocage on cell viability was observed. In summary, our cell viability studies confirm target engagement in live cells exclusively after photorelease, thereby again confirming the suitability of the photocaged DPP8/9 inhibitor 5 as a cell biological tool compound.
To investigate the cytotoxicity of compounds, 2 × 10^4 HEK293 cells were cultured in DMEM (+/+) on 96‐well flat‐bottom cell culture plates (Sarstedt, Germany) as described above. After 24 h, cells were treated with indicated concentrations of compounds (final DMSO concentration: 0.5%) and, if applicable, irradiated with a green LED lamp (λ = 520−530 nm; Eurolite, Germany) for 5 min. Control cells were treated with DMSO. Cell viability was measured 24 h after compound treatment. To this end, 25 µL Thiazolyl Blue Tetrazolium Bromide (MTT) solution (5 mg mL^−1 MTT (Sigma Aldrich, USA) in PBS (Gibco, USA)) was added to each well directly into the medium. After 3 h of incubation at 37 °C, the medium was removed and formazan crystals were dissolved by adding 150 µL DMSO (1 h, 37 °C, gentle shaking), followed by an absorbance measurement at 570 and 630 nm as a reference using a Tecan Spark 10 M multimode microplate reader (Tecan Group Ltd., Switzerland). Each experiment was performed with five replicates. Relative cell viability was expressed as a percentage relative to the DMSO‐treated control cells.

human DPP4 = target: T2, human DPP4 (Homo sapiens, UniProt P27487); test: DPP4 enzyme inhibition assay, AMC release from GP-AMC; type: biochemical
T2 construct: purchased Proteros Biostructures GmbH, Germany
Excerpt: as §1
as §2, with “All measurements were performed in triplicate, and error bars represent standard errors of the fit.” left out

T2 sequence (P27487 whole entry): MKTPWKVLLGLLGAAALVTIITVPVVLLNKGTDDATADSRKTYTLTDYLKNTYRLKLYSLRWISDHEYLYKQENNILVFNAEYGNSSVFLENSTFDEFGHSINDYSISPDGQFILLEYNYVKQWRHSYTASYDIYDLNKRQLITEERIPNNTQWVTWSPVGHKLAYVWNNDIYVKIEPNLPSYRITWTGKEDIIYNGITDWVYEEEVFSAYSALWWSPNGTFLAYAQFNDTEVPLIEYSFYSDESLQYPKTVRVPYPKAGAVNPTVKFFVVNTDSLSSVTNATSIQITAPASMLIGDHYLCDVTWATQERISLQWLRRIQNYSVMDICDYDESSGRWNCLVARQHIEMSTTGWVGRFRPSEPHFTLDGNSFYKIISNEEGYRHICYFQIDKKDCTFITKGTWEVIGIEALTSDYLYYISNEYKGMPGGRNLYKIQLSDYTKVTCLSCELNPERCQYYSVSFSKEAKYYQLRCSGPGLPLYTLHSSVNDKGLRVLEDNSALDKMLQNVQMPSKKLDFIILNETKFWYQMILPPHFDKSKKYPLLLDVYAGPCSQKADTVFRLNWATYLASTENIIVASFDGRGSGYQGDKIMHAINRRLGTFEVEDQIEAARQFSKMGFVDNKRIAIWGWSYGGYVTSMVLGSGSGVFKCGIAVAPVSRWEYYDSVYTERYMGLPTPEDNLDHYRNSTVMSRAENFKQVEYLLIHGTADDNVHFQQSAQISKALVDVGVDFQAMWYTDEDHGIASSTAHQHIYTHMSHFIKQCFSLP
T1 sequence (Q6V1X1 whole entry): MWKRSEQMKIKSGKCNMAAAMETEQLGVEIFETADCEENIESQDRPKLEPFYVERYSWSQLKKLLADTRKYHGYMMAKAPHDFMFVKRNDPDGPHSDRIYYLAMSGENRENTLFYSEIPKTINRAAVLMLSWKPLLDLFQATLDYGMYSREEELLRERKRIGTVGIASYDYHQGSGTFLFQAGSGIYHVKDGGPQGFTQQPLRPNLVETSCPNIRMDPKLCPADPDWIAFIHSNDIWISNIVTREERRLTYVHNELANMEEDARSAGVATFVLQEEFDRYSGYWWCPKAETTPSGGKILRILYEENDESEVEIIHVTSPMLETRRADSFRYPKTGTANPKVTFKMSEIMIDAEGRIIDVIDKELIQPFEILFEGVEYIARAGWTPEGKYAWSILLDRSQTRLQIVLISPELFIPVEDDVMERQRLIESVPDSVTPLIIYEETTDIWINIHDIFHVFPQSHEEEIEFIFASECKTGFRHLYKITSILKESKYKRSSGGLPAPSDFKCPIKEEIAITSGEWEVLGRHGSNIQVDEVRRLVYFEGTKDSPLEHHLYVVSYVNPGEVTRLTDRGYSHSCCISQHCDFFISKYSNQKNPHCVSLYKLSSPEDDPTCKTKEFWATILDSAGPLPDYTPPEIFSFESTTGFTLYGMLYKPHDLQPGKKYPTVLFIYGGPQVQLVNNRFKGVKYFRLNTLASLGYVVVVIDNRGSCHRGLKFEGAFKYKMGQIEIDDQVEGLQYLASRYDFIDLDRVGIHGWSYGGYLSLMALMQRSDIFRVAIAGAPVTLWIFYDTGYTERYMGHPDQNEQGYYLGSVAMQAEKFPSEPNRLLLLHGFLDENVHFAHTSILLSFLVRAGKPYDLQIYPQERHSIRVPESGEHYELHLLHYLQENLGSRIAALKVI

## CCCCCc1ccc(SCCP(=O)(OCC)N2CCC[C@H](NC(=O)OCC3=C4C(C)=CC(C)=[N+]4[B-](C)(C)n4c(C)cc(C)c43)C2=O)cc1 (stereo partly shown) [Compound 5]
Human DPP8
  Dark/light ratio of apparent IC50: 30
Human DPP8; apparent IC50 dark vs light
  Increase in potency after green light-mediated photorelease: about 30 fold
Human DPP8; dark (without green light irradiation)
  IC50: 1100 nM
Human DPP8; light (5 min green LED, 520-530 nm)
  IC50: 37 ± 3 nM
HEK293 cells; 25 µM
  Viability of cells (in words): significantly reduced
HEK293 cells; 50 µM
  Viability of cells (in words): significantly reduced
HEK293 cells; dark, up to highest concentrations used
  Cytotoxicity (in words): no cytotoxicity
Human DPP4; DPP4, dark (without green light irradiation), 45 min pre-incubation, read-out: Apparent IC50
  IC50: > 100000 nM
Human DPP4; irradiated
  DPP4 inhibition (in words): not inhibited
Human DPP4; non-irradiated
  DPP4 inhibition (in words): not inhibited
